Literature values, collected in patent US5424332A, “Pharmaceutical composition and process for the production thereof” (priority 1993, dated 1995).

Experiments:
[1] = high doses; parenteral, dermal and, in particular, peroral administration
[2] = test system: Ehrlich ascites tumor; settings: mice
[3] = test system: mitomycin C toxic effects
[4] = test system: psoriasis

Compound	adverse effects and toxicity [1]	growth of the Ehrlich ascites tumor [2]	toxic effects of mitomycin C [3]	anti-psoriatic action [4]
O=C(O)/C(O)=C(\O)C(=O)O [dihydroxy fumaric acid]	unacceptable rate of adverse effects and high toxicity	–	–	–
NC(=O)/C=C/C(N)=O [fumaramide]	unacceptable rate of adverse effects and high toxicity	–	–	–
O=C(O)/C=C/C(=O)O [fumaric acid]	unacceptable rate of adverse effects and high toxicity	impedes the growth	reduces the toxic effects	anti-psoriatic
N#C/C=C/C#N [fumaronitrile]	unacceptable rate of adverse effects and high toxicity	–	–	–
